Assay results from patent US9321809B2, “Macrocyclic compounds for suppressing replication of hepatitis C virus” (Ginkgo Pharma Co., Ltd., priority 2012, dated 2016).
pEC50: −log10 of the molar value.

Test system: HCV replicon-containing huh-7 cells (replicon 1b)
Assay: HCV Replicon Assay (luciferase readout)
Type: cell-based
Conditions: Hepatitis C virus; HCV replicon 1b in huh-7 cells, 48 h incubation, 1% DMSO, luciferase signal; read-out: EC50 (EC 50 on replicon 1b)
Procedure: Compounds of formuala (I) are tested for the ability to inhibit viral replication of the Hepatitis C viruses by the following in vitro assays.
DMEM (Life Technologies #41965-039) was supplemented with 10% FBS, 2 mM L-glutamine (Life Technologies #25030-024), penicillin (100 units/ml)/streptomycin (100 micrograms/ml) (Life Technologies #15140-114), 1× non-essential amino acids (Life Technologies #11140-035).
Complete media was prepared by mixing FBS, DMEM media with Geneticin (G418). The compete media was preincubated at 37° C. in a CO2 incubator. Then, HCV replicon-containing huh-7 cells (V. Lohmann et. al. Science, 285, (1999)110-113) was taken out from 37° C. incubator. The residual medium was absorbed, and the cells were washed with PBS. After washing fluid was removed, 1 ml 0.25% trypsin/0.02% EDTA solution. The cells were washed by the above trypsin/EDTA solution to make sure that each cell was cleaned. After the trypsin/EDTA solution was absorbed, the mixture was incubated at 37° C. in a CO2 incubator for 3-5 minutes. Morphological changes were observed by inverted microscope, till the cells were detached from the wall of container completely.
3 ml of complete media was added to make the cells to suspend. The cells are counted with hematometer. Appropriate volumes of the complete media was added to adjust the cell density to 100,000/ml. Cells were plated with 100 μl of suspension at 10,000/well of 96 well plate. Plates were placed into 37° C. 5% CO2 incubator for 24 h.
Preparation of Drug Solution:
Drugs were diluted under aseptic conditions.
Stock solutions may be prepared before the assay, which means that the test compounds are dissolved in 100% DMSO to afford a final concentration of 2 mM. Before the 96 well culture was completed, the stock solution was diluted with culter media to 100 fold of the final concentration (100× solution).
96-well plates were taken out from 37° C. CO2 incubator and morphological changes were observed by inverted microscope. In a ventilator, 1 μl of 100× drug solution was added to wells of 96 well plate until the final concentration of DMSO in the mixture is 1%. The plates were incubated at 37° C. in a CO2 environment for 48 h. 30 μl of Stead-G1® Luciferase Assay System (bought from Promega) was added to each well of 96 well plates and each plate is shaken in a plate shaker for 5 minutes to ensure cells cleavaged completely. The fluorescence signal was quantitated in a Perkin-Elmer plate reader (Envision) and integral time was setted to be 2 second. The following data were achieved after recording and analyzing the data.

First: C=C[C@@H]1C[C@]1(NC(=O)[C@@H]1C[C@@H]2CN1C(=O)[C@H](C1CCCCC1)NC(=O)[C@@H](NC(=O)OC(C)(C)C)COCCCc1cc3c(nccc3cc1OC)O2)C(=O)NS(=O)(=O)C1CC1 [Compound IIb-4, tert-butyl N-[(3R,5S,8S,11S)-8-cyclohexyl-5-{[(1R,2S)-1-[(cyclopropanesulfonyl)carbamoyl]-2-ethenylcyclopropyl]carbamoyl}-18-methoxy-7,10-dioxo-2,13-dioxa-6,9,23-triazatetracyclo[15.6.2.1^3,6.0^20,24]hexacosa-1(23),17(25),18,20(24),21-pentaen-11-yl]carbamate]
Second: CCC1C[C@]1(NC(=O)[C@@H]1C[C@@H]2CN1C(=O)[C@H](C1CCCCC1)NC(=O)[C@@H](NC(=O)OC(C)(C)C)COCCCc1cc3c(nccc3cc1OC)O2)C(=O)NS(=O)(=O)C1CC1 (stereo in doubt) [Compound IIb-6, tert-butyl N-[(3R,5S,8S,11S)-8-cyclohexyl-5-{[(1R,2S)-1-[(cyclopropanesulfonyl)carbamoyl]-2-ethylcyclopropyl]carbamoyl}-18-methoxy-7,10-dioxo-2,13-dioxa-6,9,23-triazatetracyclo[15.6.2.1^3,6.0^20,24]hexacosa-1(23),17(25),18,20(24),21-pentaen-11-yl]carbamate]
The pEC50 of the first is higher: greater than 8.00 for the first, 6.30 to 7.30 for the second.

First: C=C[C@@H]1C[C@]1(NC(=O)[C@@H]1C[C@@H]2CN1C(=O)[C@H](C(C)(C)C)NC(=O)[C@@H](NC(C)=O)COC/C=C/c1cccc3c1CN(C3)C(=O)O2)C(=O)NS(=O)(=O)C1CC1 [Compound IIa-7, (1R,12E,17S,20S,23S)-20-tert-butyl-N-[(1R,2S)-1-[(cyclopropanesulfonyl)carbamoyl]-2-ethenylcyclopropyl]-17-acetamido-3,18,21-trioxo-2,15-dioxa-4,19,22-triazatetracyclo[20.2.1.1^4,7.0^6,11]hexacosa-6,8,10,12-tetraene-23-carboxamide]
Second: C=C[C@@H]1C[C@]1(NC(=O)[C@@H]1C[C@@H]2CN1C(=O)[C@H](C(C)(C)C)NC(=O)[C@@H](NC(=O)NC(C)(C)C)COC/C=C/c1cccc3c1CN(C3)C(=O)O2)C(=O)NS(=O)(=O)C1CC1 [Compound IIa-12, (1R,12E,17S,20S,23S)-20-tert-butyl-17-[(tert-butylcarbamoyl)amino]-N-[(1R,2S)-1-[(cyclopropanesulfonyl)carbamoyl]-2-ethenylcyclopropyl]-3,18,21-trioxo-2,15-dioxa-4,19,22-triazatetracyclo[20.2.1.1^4,7.0^6,11]hexacosa-6,8,10,12-tetraene-23-carboxamide]
The pEC50 of the first is lower: 6.30 to 7.30 for the first, greater than 8.00 for the second. The second is the more potent here.

First: C=C[C@@H]1C[C@]1(NC(=O)[C@@H]1C[C@@H]2CN1C(=O)[C@H](C(C)(C)C)NC(=O)[C@@H](N)COC/C=C/c1cccc3c1CN(C3)C(=O)O2)C(=O)NS(=O)(=O)C1CC1 [Compound IIa-2, (1R,12E,17S,20S,23S)-17-amino-20-tert-butyl-N-[(1R,2S)-1-[(cyclopropanesulfonyl)carbamoyl]-2-ethenylcyclopropyl]-3,18,21-trioxo-2,15-dioxa-4,19,22-triazatetracyclo[20.2.1.1^4,7.0^6,11]hexacosa-6,8,10,12-tetraene-23-carboxamide]
Second: C=C[C@@H]1C[C@]1(NC(=O)[C@@H]1C[C@@H]2CN1C(=O)[C@H](C(C)(C)C)NC(=O)[C@@H](NC(=O)c1cnccn1)COC/C=C/c1cccc3c1CN(C3)C(=O)O2)C(=O)NS(=O)(=O)C1CC1 [Compound IIa-5, (1R,12E,17S,20S,23S)-20-tert-butyl-23-N-[(1R,2S)-1-[(cyclopropanesulfonyl)carbamoyl]-2-ethenylcyclopropyl]-3,18,21-trioxo-17-C-pyrazine-2-2,15-dioxa-4,19,22-triazatetracyclo[20.2.1.1^4,7.0^6,11]hexacosa-6,8,10,12-tetraene-17,23-diamido]
The pEC50 of the first is higher: 7.30 to 8.00 for the first, 6.30 to 7.30 for the second.

First: C=C[C@@H]1C[C@]1(NC(=O)[C@@H]1C[C@@H]2CN1C(=O)[C@H](C(C)(C)C)NC(=O)[C@@H](NC(=O)OC(C)(C)C)CSC/C=C/c1cccc3c1CN(C3)C(=O)O2)C(=O)NS(=O)(=O)C1CC1 [Compound IIa-21, tert-butyl N-[(1R,12E,17R,20S,23S)-20-tert-butyl-23-{[(1R,2S)-1-[(cyclopropanesulfonyl)carbamoyl]-2-ethenylcyclopropyl]carbamoyl}-3,18,21-trioxo-2-oxa-15-thia-4,19,22-triazatetracyclo[20.2.1.1^4,7.0^6,11]hexacosa-6,8,10,12-tetraen-17-yl]carbamate]
Second: CC[C@@H]1C[C@]1(NC(=O)[C@@H]1C[C@@H]2CN1C(=O)[C@H](C(C)(C)C)NC(=O)[C@@H](NC(=O)OC(C)(C)C)COC/C=C/c1cccc3c1CN(C3)C(=O)O2)C(=O)NS(=O)(=O)C1CC1 [Compound IIa-15, tert-butyl N-[(1R,12E,17S,20S,23S)-20-tert-butyl-23-{[(1R,2R)-1-[(cyclopropanesulfonyl)carbamoyl]-2-ethylcyclopropyl]carbamoyl}-3,18,21-trioxo-2,15-dioxa-4,19,22-triazatetracyclo[20.2.1.1^4,7.0^6,11]hexacosa-6,8,10,12-tetraen-17-yl]carbamate]
The pEC50 of the first is lower: 7.30 to 8.00 for the first, greater than 8.00 for the second.

`C=C[C@@H]1C[C@]1(NC(=O)[C@@H]1C[C@@H]2CN1C(=O)[C@H](C1CCCCC1)NC(=O)[C@@H](NC(=O)OC(C)(C)C)COCCCc1cccc3c1CN(C3)C(=O)O2)C(=O)NS(=O)(=O)C1CC1` [Compound IIa-17, tert-butyl N-[(1R,17S,20S,23S)-20-cyclohexyl-23-{[(1R,2S)-1-[(cyclopropanesulfonyl)carbamoyl]-2-ethenylcyclopropyl]carbamoyl}-3,18,21-trioxo-2,15-dioxa-4,19,22-triazatetracyclo[20.2.1.1^4,7.0^6,11]hexacosa-6,8,10-trien-17-yl]carbamate] and `CC[C@@H]1C[C@]1(NC(=O)[C@@H]1C[C@@H]2CN1C(=O)[C@H](C1CCCCC1)NC(=O)[C@@H](NC(=O)OC(C)(C)C)COC/C=C/c1cccc3c1CN(C3)C(=O)O2)C(=O)NS(=O)(=O)C1CC1` [Compound IIa-19, tert-butyl N-[(1R,12E,17S,20S,23S)-20-cyclohexyl-23-{[(1R,2R)-1-[(cyclopropanesulfonyl)carbamoyl]-2-ethylcyclopropyl]carbamoyl}-3,18,21-trioxo-2,15-dioxa-4,19,22-triazatetracyclo[20.2.1.1^4,7.0^6,11]hexacosa-6,8,10,12-tetraen-17-yl]carbamate] cannot be ordered by pEC50: greater than 8.00 for the first, greater than 8.00 for the second.

Compared with `C=C[C@@H]1C[C@]1(NC(=O)[C@@H]1C[C@@H]2CN1C(=O)[C@H](C(C)(C)C)NC(=O)[C@@H](NC(=O)OC(C)(C)C)COC/C=C/c1cc3c(nccc3cc1OC)O2)C(=O)NS(=O)(=O)C1CC1` [Compound IIb-1, tert-butyl N-[(3R,5S,8S,11S,15E)-8-tert-butyl-5-{[(1R,2S)-1-[(cyclopropanesulfonyl)carbamoyl]-2-ethenylcyclopropyl]carbamoyl}-18-methoxy-7,10-dioxo-2,13-dioxa-6,9,23-triazatetracyclo[15.6.2.1^3,6.0^20,24]hexacosa-1(23),15,17(25),18,20(24),21-hexaen-11-yl]carbamate], `C=C[C@@H]1C[C@]1(NC(=O)[C@@H]1C[C@@H]2CN1C(=O)[C@H](C(C)(C)C)NC(=O)[C@H](NC(=O)c1cnccn1)COC/C=C/c1cccc3c1CN(C3)C(=O)O2)C(=O)NS(=O)(=O)C1CC1` [Compound IIa-6, (1R,12E,17R,20S,23S)-20-tert-butyl-23-N-[(1R,2S)-1-[(cyclopropanesulfonyl)carbamoyl]-2-ethenylcyclopropyl]-3,18,21-trioxo-17-C-pyrazine-2-2,15-dioxa-4,19,22-triazatetracyclo[20.2.1.1^4,7.0^6,11]hexacosa-6,8,10,12-tetraene-17,23-diamido] is lower in pEC50: greater than 8.00 for the first, 6.30 to 7.30 for the second. The first is the more potent here.

`C=C[C@@H]1C[C@]1(NC(=O)[C@@H]1C[C@@H]2CN1C(=O)[C@H](C(C)(C)C)NC(=O)[C@@H](NC(=O)OC1CCCC1)COC/C=C/c1cccc3c1CN(C3)C(=O)O2)C(=O)NS(=O)(=O)C1CC1` [Compound IIa-11, cyclopentyl N-[(1R,12E,17S,20S,23S)-20-tert-butyl-23-{[(1R,2S)-1-[(cyclopropanesulfonyl)carbamoyl]-2-ethenylcyclopropyl]carbamoyl}-3,18,21-trioxo-2,15-dioxa-4,19,22-triazatetracyclo[20.2.1.1^4,7.0^6,11]hexacosa-6,8,10,12-tetraen-17-yl]carbamate] gave a pEC50 greater than 8.00.
